Consider one compound from US20210259960A1, “FORMULATION CONTAINING EMRICASAN” (The Doshisha, priority 2018, published 2021).

Series [1] deals with immortalized cells in Fuchs' endothelial corneal dystrophy (iFECD). To be noted: in vitro; cited from earlier work.
A short description of series [2]: Solubility of emricasan with 2% surfactant at various pH, visually observed (Example 1). It counts as physicochemical. The method, then:
28 mg, which is the amount for the target concentration, of emricasan powder (Chemscene) was accurately measured with an electronic balance (AUW220D, SHIMADZU) and transferred to a glass test tube. 100 μl of 99% ethanol was added thereto to dissolve the emricasan powder. The solution thereof was sufficiently stirred with a vortex mixer in order to completely dissolve the emricasan powder. The solution thereof was then added with each of polysorbate 80 (Tween 80, NIKKOL), polyoxyethylene hydrogenated castor oil (HCO-60, NIKKOL), and polyethylene glycol monostearate (MYS-40, NIKKOL), which are nonionic surfactants comprising a polyoxyethylene group, so that the final concentration was 2%, followed by sufficient stirring. Phosphate buffered saline (PBS) was added to this solution so that the total amount was 5 ml, and the solution was sufficiently stirred and solubility was visually observed.

A short description of series [3]: Stability of emricasan in an acidic region using Tween 80, HPLC (Example 5). It counts as physicochemical. On the procedure:
Stability of when Tween 80 was used as a surfactant to dissolve emricasan to a final concentration of 0.1% was tested.
45 mg of emricasan was accurately measured with an electronic balance (AUW220D, SHIMADZU) and transferred to a glass test tube. 0.9 ml of 99% ethanol was added thereto to dissolve emricasan. The solution thereof was sufficiently stirred with a vortex mixer in order to completely dissolve emricasan. The solution thereof was then added with polysorbate 80 (Tween 80, NIKKOL), which is a surfactant, so that the final concentration was 0.5%, followed by sufficient stirring. Ethanol was then distilled off by a nitrogen gas stream. In order to adjust osmotic pressure, concentrated glycerin was added to this solution so that the final concentration was 1%. Phosphate buffered saline (PBS) was adjusted to pH 5.5, and added so that the total amount was 45 ml. After the solution was sufficiently stirred, 20 ml was collected and filtered with a 0.22 μmGV filter (Merck Millipore). 5 ml of the first filtrate was discarded, and 15 ml of the subsequent filtrate was collected. 5 ml of this filtrate was placed in each glass test tube for 4° C., 25° C., and 37° C., shaded by a parafilm and an aluminum foil, and preserved under each temperature condition. The stability of this sample was studied by a high performance liquid chromatography (HPLC, Shimadzu Corporation). HPLC conditions were as follows: acetonitrile containing 0.05% trifluoroacetic acid and water were used at the ratio of 60:40 as a mobile phase, the temperature of VR-ODS column (4.6×150 mm, Shimadzu Corporation) was set to be 40° C., the flow rate was set to be 1.0 ml/min, the detection wavelength was set to be 254 nm, the injection volume was set to be 10 μl, and the detection time was set to be 10 minutes. In this case, the stability was studied over time by assuming the results of HPLC measurement immediately after preparation to be 100% and comparing said results with the results after 2 weeks and 4 weeks. Further, the condition of pH 4.5 was prepared and studied in the same method as described above.

Series [4] in a line: Solubility of emricasan with 0.5% of various surfactants at low pH, visually observed (Example 2). It counts as physicochemical. To be noted: target 10 mmol/L; surfactant 0.5% (HCO-100, HCO-60, HCO-40, HCO-20, CO-35, MYS-40, poloxamer 407). On the procedure:
In this example, a target dissolution concentration of emricasan was set to be 10 mmol/L in the same manner as Example 1. 28 mg of emricasan was accurately measured with an electronic balance (AUW220D, SHIMADZU) and transferred to a glass test tube. 100 μl of 99% ethanol was added thereto to dissolve emricasan. The solution thereof was sufficiently stirred with a vortex mixer in order to completely dissolve emricasan. The solution thereof was then added with polyoxyethylene hydrogenated castor oil 100 (HCO-100, NIKKOL), polyoxyethylene hydrogenated castor oil (HCO-60, NIKKOL), polyoxyethylene hydrogenated castor oil 40 (HCO-40, NIKKOL), polyoxyethylene hydrogenated castor oil 20 (HCO-20, NIKKOL), polyoxyethylene castor oil (CO-35:, NIKKOL), polyethylene glycol monostearate 40 (MYS-40, NIKKOL), and polyoxyethylene polyoxypropylene glycol 407 (poloxamer 407, NIKKOL), which are nonionic surfactants comprising a polyoxyethylene group, so that the final concentration was 0.5%, followed by sufficient stirring. Phosphate buffered saline (PBS) was added to this solution so that the total amount was 5 ml, and the solution was sufficiently stirred and solubility was visually observed.

Series [5] is described as follows: Lyophilization test of emricasan ophthalmic solution, re-solubility by HPLC (Example 6). The class given is physicochemical. As to conditions: water added. The method, then: 7 mg of emricasan was accurately measured with an electronic balance (AUW220D, SHIMADZU) and transferred to a glass test tube. 140 μl of 99% ethanol was added thereto to dissolve emricasan. The solution thereof was sufficiently stirred with a vortex mixer in order to completely dissolve emricasan. The solution thereof was then added with polysorbate 80 (Tween 80, NIKKOL), which is a surfactant, so that the final concentration was 0.5%, followed by sufficient stirring. Ethanol was then distilled off by a nitrogen gas stream. D-mannitol (Wako Pure Chemical Industries, Ltd.) was dissolved into phosphate buffered saline (PBS) so that the final concentration was 4.5%, and the solution thereof was adjusted to pH 4.5 and added to the above solution so that the total amount was 7 ml. This solution was sufficiently stirred, and preserved in a −83° C. freezer for one day. After freezing, water was completely removed by a lyophilization machine (FDU-1200, TOKYO RIKAKIKAI CO, LTD) for 12 hours.
Water was then added to study the re-solubility. Further, after this sample was filtered with a 0.22 μmGV filter (Merck Millipore), the re-solubility of emricasan was measured by a high performance liquid chromatography (HPLC, Shimadzu Corporation). […]

Series [6] in a line: Stability of emricasan in solution using HCO-60, HPLC (Example 3). To be noted: 0.5% emricasan, 0.5% HCO-60. It counts as physicochemical. On the procedure: Stability of when HCO-60 was used as a surfactant to dissolve emricasan to a final concentration of 0.5% was tested. 500 mg of emricasan was accurately measured with an electronic balance (AUW220D, SHIMADZU) and transferred to a glass test tube. 2 ml of 99% ethanol was added thereto to dissolve emricasan. The solution thereof was sufficiently stirred with a vortex mixer in order to completely dissolve emricasan. The solution thereof was then added with polyoxyethylene hydrogenated castor oil 60 (HCO-60, NIKKOL), which is a surfactant, so that the final concentration was 0.5%, followed by sufficient stirring. Ethanol was then distilled off by a nitrogen gas stream. In order to adjust osmotic pressure, concentrated glycerin was added to this solution so that the final concentration was 1%. Phosphate buffered saline (PBS) was adjusted to pH 8, and added so that the total amount was 100 ml. After the solution was sufficiently stirred, 20 ml was collected and filtered with a 0.22 μmGV filter (Merck Millipore). 5 ml of the first filtrate was discarded, and 15 ml of the subsequent filtrate was collected. […] In this case, the stability was evaluated over time by assuming the results of HPLC measurement immediately after preparation to be 100% and comparing said results with the results after 2 weeks and 4 weeks. […]

Series [7] in a line: Stability of emricasan in solution using Tween 80, HPLC (Example 4). The class given is physicochemical. As to conditions: 0.5% emricasan, 0.5% Tween 80. On the procedure: Stability of when Tween 80 was used as a surfactant to dissolve emricasan to a final concentration of 0.5% was tested. 500 mg of emricasan was accurately measured with an electronic balance (AUW220D, SHIMADZU) and transferred to a glass test tube. 2 ml of 99% ethanol was added thereto to dissolve emricasan. The solution thereof was sufficiently stirred with a vortex mixer in order to completely dissolve emricasan. The solution thereof was then added with polysorbate 80 (Tween 80, NIKKOL), which is a surfactant, so that the final concentration was 0.5%, followed by sufficient stirring. Ethanol was then distilled off by a nitrogen gas stream. In order to adjust osmotic pressure, concentrated glycerin was added to this solution so that the final concentration was 1%. Phosphate buffered saline (PBS) was adjusted to pH 8, and added so that the total amount was 100 ml. After the solution was sufficiently stirred, 20 ml was collected and filtered with a 0.22 μmGV filter (Merck Millipore). 5 ml of the first filtrate was discarded, and 15 ml of the subsequent filtrate was collected. 5 ml of this filtrate was placed in each glass test tube for 4° C., 25° C., and 37° C., shaded by a parafilm and an aluminum foil, and preserved under each temperature condition. The stability of this sample was studied by a high performance liquid chromatography (HPLC, Shimadzu Corporation). […]

With `C[C@H](NC(=O)C(=O)Nc1ccccc1C(C)(C)C)C(=O)N[C@@H](CC(=O)O)C(=O)COc1c(F)c(F)cc(F)c1F` [emricasan], the “concentration that exhibited pharmacological activity” value in series [1] is given as 10 μmol/L. The “solubility (visually observed)” value in series [2] (HCO-60 2%, pH 5.0, target 10 mmol/L) is “a suspended state was maintained”; in series [2] (Tween 80, HCO-60 or MYS-40 2%, pH 7, target 10 mmol/L) it was “dissolution of all of the emricasan was observed”; in series [2] (no surfactant, pH 7.0 to 8.0, target 10 mmol/L), “dissolution was not observed”; in series [2] (with surfactant 2%, pH 5.0, target 10 mmol/L), “slightly dissolved”. Further, the “solubility in saline, phosphate buffer, purified water” value in series [2] (no surfactant, at a concentration for use in an eye drop) was “poorly soluble”. For the same compound, the “minimum pH value of a solvent in which dissolution was visually observed” value in series [2] (target 10 mmol/L, nonionic polyoxyethylene surfactant 2%) was 6.0. For the same compound, the “emricasan which was not degraded” value was “no less than 90%” in series [3] (0.1% emricasan, 0.5% Tween 80, pH 4.5, 25° C., 2 weeks); “no less than 90%” in series [3] (0.1% emricasan, 0.5% Tween 80, pH 4.5 and 5.5, 4° C., 4 weeks); “less than 90%” in series [3] (0.1% emricasan, 0.5% Tween 80, pH 5.5, 25° C., 2 weeks); “no less than 50%” in series [3] (0.1% emricasan, 0.5% Tween 80, pH 5.5, 25° C., 4 weeks). For the same compound, the stability in solution entry was “degradation of emricasan was observed” in series [3] (0.1% emricasan, 0.5% Tween 80, pH 4.5 and pH 5.5, 37° C.); “degradation of emricasan was observed” in series [6] (25° C. and 37° C.); “degradation of emricasan was observed” in series [7] (25° C. and 37° C.). Further, the “solubility at final concentration of 0.1%” value in series [3] (0.5% Tween 80, pH 4.5 and pH 5.5) was “dissolved”. The “amount of emricasan that dissolves” value in series [3] (pH on the acidic side) was “at least 0.1 % by weight”. Besides, the “final pH at which dissolution was observed” value in series [4] was no less than 6.5. The “amount of emricasan dissolved relative to before lyophilization” value in series [5] (lyophilized (0.5% Tween 80, 4.5% D-mannitol, pH 4.5), after 0.22 μm filtration) is “about 88%”. In series [5] (lyophilized sample), the “re-solubility after addition of water (appearance)” value is on record as “immediately dissolved but was pale white”. Further, the “emricasan which was not degraded (residual vs immediately after preparation)” value in series [6] (pH 6 to 8, 4° C., 4 weeks) is on record as “no less than 90%”; in series [7] (pH 6 to 8, 4° C., 4 weeks) it was “no less than 90%”.
